Values of other authors, collected in paper PMC4221044, “Antimicrobial GL13K Peptide Coatings Killed and Ruptured the Wall of Streptococcus gordonii and Prevented Formation and Growth of Biofilms” (PLoS ONE, 2014).

Experiments:
[1] = test system: planktonic Pseudonomas aeruginosa; conditions: peptide in solution
Description: (§1) Functionalization of titanium surfaces with coatings made of antimicrobial agents has recently been explored to inhibit peri-implant infections. The coatings can contain nanoparticles of pure elements, [5]; sanitizing agents and disinfectants; and antibiotics as well as antimicrobial peptides. Gentamicin [7]–[9] and Vancomycin [10]–[13] have been coated on Ti surfaces for protecting from infection dental and orthopedic implants.

Streptococcus gordonii = conditions: 100 µg/ml GL13K
Description: as §1

[2] = test system: Pseudonomas aeruginosa biofilms; conditions: 100 µg/ml GL13K
Description: as §1

Which results are given for “GKIIKLKASLKLL-NH2 [GL13K, antimicrobial peptide …-NH2 derived from the human salivary protein BPIFA2]”?
MIC [1]: 8 µg/mL; bacteria killed (Streptococcus gordonii): 100%; reduction of biofilms [2]: three orders of magnitude
